# Source: PMC5218480 (PLoS ONE, 2017)
# Tested on: MV-4-11 cells
# Assay: Gene expression microarray analysis (Affymetrix PrimeView) and GSEA
# Type: cell-based, human
# Set-up: RFU PODN (11730768_x_at) / Fold change /veh PODN (11730768_x_at) / RFU LINC00158 (11744669_a_at) / Fold change /veh LINC00158 (11744669_a_at) / RFU DUSP10 (11751237_a_at) / Fold change /veh DUSP10 (11751237_a_at) / RFU ID3 (11757404_x_at) / Fold change /veh ID3 (11757404_x_at) / RFU PLEKHG5 (11737974_s_at) / Fold change /veh PLEKHG5 (11737974_s_at) / RFU LRRC4B (11730491_at) / Fold change /veh LRRC4B (11730491_at) / RFU GIMAP4 (11747438_a_at) / Fold change /veh GIMAP4 (11747438_a_at) / RFU KRT8 (11758183_x_at) / Fold change /veh KRT8 (11758183_x_at) / RFU CNN1 (11734310_a_at) / Fold change /veh CNN1 (11734310_a_at) / RFU VPS37D (11726825_at) / Fold change /veh VPS37D (11726825_at) / RFU C10orf10 (11716522_x_at) / Fold change /veh C10orf10 (11716522_x_at) / RFU KIR2DL2 /// KIR2DL4 /// KIR2DL5A /// KIR2DL5B /// KIR2DS1 /// KIR2DS2 /// KIR2DS3 /// KIR2DS4 /// KIR3DL3 /// KIR3DL3 /// KIR3DS1 (11738374_at) / Fold change /veh KIR2DL2 /// KIR2DL4 /// KIR2DL5A /// KIR2DL5B /// KIR2DS1 /// KIR2DS2 /// KIR2DS3 /// KIR2DS4 /// KIR3DL3 /// KIR3DL3 /// KIR3DS1 (11738374_at) / RFU C1QL1 (11718748_at) / Fold change /veh C1QL1 (11718748_at) / RFU TMPRSS4 (11747572_a_at) / Fold change /veh TMPRSS4 (11747572_a_at) / RFU HAMP (11756126_x_at) / Fold change /veh HAMP (11756126_x_at) / RFU RNFT2 (11725882_a_at) / Fold change /veh RNFT2 (11725882_a_at) / RFU NR4A2 (11747474_a_at) / Fold change /veh NR4A2 (11747474_a_at) / RFU ABCC12 (11746883_a_at) / Fold change /veh ABCC12 (11746883_a_at) / RFU TMEM136 (11760407_x_at) / Fold change /veh TMEM136 (11760407_x_at) / RFU CLDN22 /// WWC2 (11732394_at) / Fold change /veh CLDN22 /// WWC2 (11732394_at) / RFU HLA-DPB1 (11760878_x_at) / Fold change /veh HLA-DPB1 (11760878_x_at) / RFU SPINT1 (11716480_a_at) / Fold change /veh SPINT1 (11716480_a_at) / RFU GAP43 (11754022_s_at) / Fold change /veh GAP43 (11754022_s_at) / RFU A4GNT (11735810_at) / Fold change /veh A4GNT (11735810_at) / RFU PRB3 (11715151_x_at) / Fold change /veh PRB3 (11715151_x_at) / RFU TUBB4B (11761932_at) / Fold change /veh TUBB4B (11761932_at) / RFU CAPN14 (11732068_a_at) / Fold change /veh CAPN14 (11732068_a_at) / RFU TMCC2 (11721928_a_at) / Fold change /veh TMCC2 (11721928_a_at) / RFU IRGQ (11745062_a_at) / Fold change /veh IRGQ (11745062_a_at) / RFU FAM174B (11720279_a_at) / Fold change /veh FAM174B (11720279_a_at) / RFU TMPRSS4 (11748680_a_at) / Fold change /veh TMPRSS4 (11748680_a_at) / RFU FAM212B (11763350_a_at) / Fold change /veh FAM212B (11763350_a_at) / RFU PLEKHG5 (11743358_a_at) / Fold change /veh PLEKHG5 (11743358_a_at) / RFU ZSCAN30 (11745921_a_at) / Fold change /veh ZSCAN30 (11745921_a_at) / RFU CMKLR1 (11741424_a_at) / Fold change /veh CMKLR1 (11741424_a_at) / RFU LOC101060620 /// MAPK8IP1 (11723275_at) / Fold change /veh LOC101060620 /// MAPK8IP1 (11723275_at) / RFU SPTSSB (11747773_x_at) / Fold change /veh SPTSSB (11747773_x_at) / RFU PRSS12 (11739890_at) / Fold change /veh PRSS12 (11739890_at) / RFU BIN1 (11741810_x_at) / Fold change /veh BIN1 (11741810_x_at) / RFU WNT11 (11732464_a_at) / Fold change /veh WNT11 (11732464_a_at) / RFU C10orf10 (11716521_a_at) / Fold change /veh C10orf10 (11716521_a_at) / RFU C5orf56 (11738089_at) / Fold change /veh C5orf56 (11738089_at) / RFU CYB561 (11721691_x_at) / Fold change /veh CYB561 (11721691_x_at) / RFU ANKRD19P (11752326_a_at) / Fold change /veh ANKRD19P (11752326_a_at) / RFU OR2T12 /// OR2T33 /// OR2T8 (11738714_s_at) / Fold change /veh OR2T12 /// OR2T33 /// OR2T8 (11738714_s_at) / RFU VCAN (11748164_a_at) / Fold change /veh VCAN (11748164_a_at) / RFU JSRP1 (11732532_at) / Fold change /veh JSRP1 (11732532_at) / RFU KRTAP10-11 (11738290_x_at) / Fold change /veh KRTAP10-11 (11738290_x_at) / RFU MYO3A (11730013_a_at) / Fold change /veh MYO3A (11730013_a_at) / RFU EBF3 (11725865_a_at) / Fold change /veh EBF3 (11725865_a_at) / RFU CAMK2N1 (11719241_x_at) / Fold change /veh CAMK2N1 (11719241_x_at) / RFU C5orf56 (11738088_a_at) / Fold change /veh C5orf56 (11738088_a_at) / RFU OLFML3 (11715873_a_at) / Fold change /veh OLFML3 (11715873_a_at) / RFU LOC100653217 /// NTM (11731650_a_at) / Fold change /veh LOC100653217 /// NTM (11731650_a_at) / RFU MAPK11 (11762145_a_at) / Fold change /veh MAPK11 (11762145_a_at) / RFU FIZ1 (11724087_x_at) / Fold change /veh FIZ1 (11724087_x_at) / RFU OASL (11726364_x_at) / Fold change /veh OASL (11726364_x_at) / RFU SOX15 (11748057_x_at) / Fold change /veh SOX15 (11748057_x_at) / RFU CD79A (11719716_a_at) / Fold change /veh CD79A (11719716_a_at) / RFU HIST1H1D (11736915_at) / Fold change /veh HIST1H1D (11736915_at) / RFU CASKIN2 (11723855_a_at) / Fold change /veh CASKIN2 (11723855_a_at) / RFU LOC730098 (11760151_x_at) / Fold change /veh LOC730098 (11760151_x_at) / RFU OR4N2 (11742367_at) / Fold change /veh OR4N2 (11742367_at) / RFU PRRT2 (11749266_a_at) / Fold change /veh PRRT2 (11749266_a_at) / RFU SNX32 (11753110_a_at) / Fold change /veh SNX32 (11753110_a_at) / RFU CDHR5 (11726645_a_at) / Fold change /veh CDHR5 (11726645_a_at) / RFU RCAN1 (11760418_a_at) / Fold change /veh RCAN1 (11760418_a_at) / RFU FAM167A (11723789_a_at) / Fold change /veh FAM167A (11723789_a_at) / RFU FAM26E (11764081_at) / Fold change /veh FAM26E (11764081_at) / RFU ISYNA1 (11749810_s_at) / Fold change /veh ISYNA1 (11749810_s_at) / RFU ACY1 (11761880_at) / Fold change /veh ACY1 (11761880_at) / RFU 11764098_at / Fold change /veh 11764098_at / RFU SAMD14 (11745864_x_at) / Fold change /veh SAMD14 (11745864_x_at) / RFU NPB (11741838_a_at) / Fold change /veh NPB (11741838_a_at) / RFU TMPRSS6 (11731388_a_at) / Fold change /veh TMPRSS6 (11731388_a_at) / RFU KRTAP10-2 (11738614_at) / Fold change /veh KRTAP10-2 (11738614_at) / RFU ARHGAP8 /// PRR5-ARHGAP8 (11727945_x_at) / Fold change /veh ARHGAP8 /// PRR5-ARHGAP8 (11727945_x_at) / RFU KRTAP5-7 /// NADSYN1 (11734609_at) / Fold change /veh KRTAP5-7 /// NADSYN1 (11734609_at) / RFU RASL12 (11751679_a_at) / Fold change /veh RASL12 (11751679_a_at) / RFU CDKN2B (11736163_a_at) / Fold change /veh CDKN2B (11736163_a_at) / RFU PRF1 (11729649_at) / Fold change /veh PRF1 (11729649_at) / RFU, ZNF638 /// ZNF638-IT1 / Fold change vs veh, ZNF638 /// ZNF638-IT1 / RFU, PANK3 / Fold change vs veh, PANK3 / RFU, SH3YL1 / Fold change vs veh, SH3YL1 / RFU, ZEB2 / Fold change vs veh, ZEB2 / RFU, NRIP1 / Fold change vs veh, NRIP1 / RFU, PTTG1IP / Fold change vs veh, PTTG1IP / RFU, CAPN2 / Fold change vs veh, CAPN2 / RFU, MED14 / Fold change vs veh, MED14 / RFU, SNORA58 / Fold change vs veh, SNORA58 / RFU, C1orf63 / Fold change vs veh, C1orf63 / RFU, LRRFIP1 / Fold change vs veh, LRRFIP1 / RFU, NDUFAF7 / Fold change vs veh, NDUFAF7 / RFU, SLC12A2 / Fold change vs veh, SLC12A2 / RFU, IBTK / Fold change vs veh, IBTK / RFU, ESF1 / Fold change vs veh, ESF1 / Fold change vs veh, TMEM50B / RFU, TAOK1 / Fold change vs veh, TAOK1 / RFU, ACBD3 / Fold change vs veh, ACBD3 / RFU, TMA16 / Fold change vs veh, TMA16 / RFU, RWDD3 / Fold change vs veh, RWDD3 / RFU, BCAT1 / Fold change vs veh, BCAT1 / RFU, EDEM3 / Fold change vs veh, EDEM3 / RFU, TMEM33 / Fold change vs veh, TMEM33 / RFU, WDR75 / Fold change vs veh, WDR75 / RFU, AHCTF1 / Fold change vs veh, AHCTF1 / RFU, TFRC / Fold change vs veh, TFRC / RFU, ZDHHC17 / Fold change vs veh, ZDHHC17 / RFU, NOM1 / Fold change vs veh, NOM1 / RFU, ARL8B / Fold change vs veh, ARL8B / RFU, ZBTB11 / Fold change vs veh, ZBTB11 / RFU, TAMM41 / Fold change vs veh, TAMM41 / RFU, KIAA1704 /// LOC100996395 / Fold change vs veh, KIAA1704 /// LOC100996395 / RFU, ING1 / Fold change vs veh, ING1 / RFU, TRMT61B / Fold change vs veh, TRMT61B / RFU, FUBP3 / Fold change vs veh, FUBP3 / RFU, TP53 / Fold change vs veh, TP53 / RFU, TNKS2 / Fold change vs veh, TNKS2 / RFU, ZFP14 / Fold change vs veh, ZFP14 / RFU, ACTR2 / Fold change vs veh, ACTR2 / RFU, PPP3R1 / Fold change vs veh, PPP3R1 / RFU, PIK3R1 / Fold change vs veh, PIK3R1 / RFU, HNRNPA1 / Fold change vs veh, HNRNPA1 / RFU, RNF170 / Fold change vs veh, RNF170 / RFU, ZNF28 / Fold change vs veh, ZNF28 / RFU, RNGTT / Fold change vs veh, RNGTT / RFU, OGT / Fold change vs veh, OGT / RFU, BRD1 / Fold change vs veh, BRD1 / RFU, MARS / Fold change vs veh, MARS / RFU, ZNF655 / Fold change vs veh, ZNF655 / RFU, FAHD1 / Fold change vs veh, FAHD1 / RFU, BDP1 / Fold change vs veh, BDP1 / RFU, LRRCC1 / Fold change vs veh, LRRCC1 / RFU, ARID1A / Fold change vs veh, ARID1A / RFU, ZNF146 / Fold change vs veh, ZNF146 / RFU, ZNF330 / Fold change vs veh, ZNF330 / RFU, GPN3 / Fold change vs veh, GPN3 / RFU, C9orf123 / Fold change vs veh, C9orf123 / RFU, N4BP2L2 / Fold change vs veh, N4BP2L2 / RFU, ARFIP1 / Fold change vs veh, ARFIP1 / RFU, FAM179B / Fold change vs veh, FAM179B / RFU, BCL10 / Fold change vs veh, BCL10 / RFU, UHRF1BP1L / Fold change vs veh, UHRF1BP1L / RFU, BET1 / Fold change vs veh, BET1 / RFU, CNOT2 / Fold change vs veh, CNOT2 / RFU, ZNF268 / Fold change vs veh, ZNF268 / Fold change vs veh, ZNF507 / RFU, DGCR2 / Fold change vs veh, DGCR2 / RFU, WDSUB1 / Fold change vs veh, WDSUB1 / Fold change vs veh, HSP90B1 /// MIR3652 / RFU, ADSS / Fold change vs veh, ADSS / RFU, GK / Fold change vs veh, GK / RFU, ZNF148 / Fold change vs veh, ZNF148 / RFU, TAF9 / Fold change vs veh, TAF9 / RFU, SLC1A5 / Fold change vs veh, SLC1A5 / RFU, SLMO2 / Fold change vs veh, SLMO2 / RFU, ABCC4 / Fold change vs veh, ABCC4 / RFU, LOC101060439 /// RAP1B / Fold change vs veh, LOC101060439 /// RAP1B / RFU, RFX7 / Fold change vs veh, RFX7 / RFU, GTPBP10 / Fold change vs veh, GTPBP10 / RFU, CNEP1R1 / Fold change vs veh, CNEP1R1 / RFU, BIVM-ERCC5 /// ERCC5 / Fold change vs veh, BIVM-ERCC5 /// ERCC5 / RFU, ILF3 / Fold change vs veh, ILF3 / RFU 11762660_at / Fold change /veh 11762660_at / RFU VCAN (11757783_s_at) / Fold change /veh VCAN (11757783_s_at) / RFU DDX43 (11728927_at) / Fold change /veh DDX43 (11728927_at) / RFU KRT8 (11758188_x_at) / Fold change /veh KRT8 (11758188_x_at) / RFU NKD1 (11759106_at) / Fold change /veh NKD1 (11759106_at) / RFU SRD5A1 (11742802_a_at) / Fold change /veh SRD5A1 (11742802_a_at) / RFU TPSAB1 /// TPSB2 (11721975_s_at) / Fold change /veh TPSAB1 /// TPSB2 (11721975_s_at) / RFU GSTM3 (11746129_a_at) / Fold change /veh GSTM3 (11746129_a_at) / RFU IL23R (11737362_x_at) / Fold change /veh IL23R (11737362_x_at) / RFU TMEM51 (11727254_a_at) / Fold change /veh TMEM51 (11727254_a_at) / RFU PIWIL2 (11732686_x_at) / Fold change /veh PIWIL2 (11732686_x_at) / RFU ORM1 (11744905_x_at) / Fold change /veh ORM1 (11744905_x_at) / RFU CCDC152 (11743942_at) / Fold change /veh CCDC152 (11743942_at) / RFU ECM1 (11717891_a_at) / Fold change /veh ECM1 (11717891_a_at) / RFU IL23R (11748794_a_at) / Fold change /veh IL23R (11748794_a_at) / RFU TNFAIP8L3 (11732012_x_at) / Fold change /veh TNFAIP8L3 (11732012_x_at) / RFU MBOAT4 (11741988_at) / Fold change /veh MBOAT4 (11741988_at) / RFU 11764193_at / Fold change /veh 11764193_at / RFU TMEM53 (11763286_at) / Fold change /veh TMEM53 (11763286_at) / RFU MAGEB2 (11727129_at) / Fold change /veh MAGEB2 (11727129_at) / RFU TMEM200A (11744735_a_at) / Fold change /veh TMEM200A (11744735_a_at) / RFU CCDC152 (11751479_a_at) / Fold change /veh CCDC152 (11751479_a_at) / RFU FAM211A (11726209_a_at) / Fold change /veh FAM211A (11726209_a_at) / RFU RGS16 (11746705_a_at) / Fold change /veh RGS16 (11746705_a_at) / RFU VCAN (11755009_s_at) / Fold change /veh VCAN (11755009_s_at) / RFU RHOB (11743442_s_at) / Fold change /veh RHOB (11743442_s_at) / RFU RGS16 (11720943_a_at) / Fold change /veh RGS16 (11720943_a_at) / RFU RGS16 (11720944_at) / Fold change /veh RGS16 (11720944_at) / RFU, VPS4B / Fold change vs veh, VPS4B / RFU, CREB1 / Fold change vs veh, CREB1 / RFU, DNAJC13 / Fold change vs veh, DNAJC13 / RFU, GNAQ / Fold change vs veh, GNAQ / RFU, CDK5R1 / Fold change vs veh, CDK5R1 / RFU, ZRANB3 / Fold change vs veh, ZRANB3 / RFU, CUL4A / Fold change vs veh, CUL4A / RFU, CCNY / Fold change vs veh, CCNY / RFU, UFL1 / Fold change vs veh, UFL1 / RFU, COG3 / Fold change vs veh, COG3 / RFU, DIAPH2 / Fold change vs veh, DIAPH2 / RFU, SKA2 / Fold change vs veh, SKA2 / RFU, AFF3 / Fold change vs veh, AFF3 / RFU, LMF1 / Fold change vs veh, LMF1 / RFU, IPO11 / Fold change vs veh, IPO11 / RFU, DFFB / Fold change vs veh, DFFB / RFU, FOXP1 / Fold change vs veh, FOXP1 / RFU, CARD8 / Fold change vs veh, CARD8 / RFU, STRN3 / Fold change vs veh, STRN3 / RFU, ADK / Fold change vs veh, ADK / RFU, RASSF2 / Fold change vs veh, RASSF2 / RFU, WIPF1 / Fold change vs veh, WIPF1 / RFU, LARP1B / Fold change vs veh, LARP1B / RFU, RASA1 / Fold change vs veh, RASA1 / RFU, RB1 / Fold change vs veh, RB1 / RFU, PPFIA1 / Fold change vs veh, PPFIA1 / RFU, MAT2A / Fold change vs veh, MAT2A / RFU, CCT5 / Fold change vs veh, CCT5 / RFU, WDR92 / Fold change vs veh, WDR92 / RFU, CUX1 / Fold change vs veh, CUX1 / RFU, TTC7A / Fold change vs veh, TTC7A / RFU, TMEM135 / Fold change vs veh, TMEM135 / RFU, DEPTOR / Fold change vs veh, DEPTOR / RFU, CPM / Fold change vs veh, CPM / RFU, DNAJB6 / Fold change vs veh, DNAJB6 / RFU, CACNA2D3 / Fold change vs veh, CACNA2D3 / RFU, DTX4 / Fold change vs veh, DTX4 / RFU, TFCP2 / Fold change vs veh, TFCP2 / RFU, GMCL1 /// GMCL1P1 / Fold change vs veh, GMCL1 /// GMCL1P1 / RFU, AEBP2 / Fold change vs veh, AEBP2 / RFU, SNHG1 /// SNORD22 /// SNORD25 /// SNORD26 /// SNORD27 /// SNORD28 /// SNORD29 /// SNORD31 / Fold change vs veh, SNHG1 /// SNORD22 /// SNORD25 /// SNORD26 /// SNORD27 /// SNORD28 /// SNORD29 /// SNORD31 / Fold change (Aza/veh), C12orf56 (ProbeSet 11735607_a_at) / Fold change (ACY-1035/veh), C12orf56 (ProbeSet 11735607_a_at) / Fold change (Aza/veh), FGFR1OP (ProbeSet 11751329_s_at) / Fold change (ACY-1035/veh), FGFR1OP (ProbeSet 11751329_s_at) / Fold change (Aza/veh), VPS36 (ProbeSet 11739960_a_at) / Fold change (ACY-1035/veh), VPS36 (ProbeSet 11739960_a_at) / RFU SYPL1 (11715823_x_at) / Fold change /veh SYPL1 (11715823_x_at) / RFU IGFBP7 (11715501_s_at) / Fold change /veh IGFBP7 (11715501_s_at) / RFU REEP3 (11722064_at) / Fold change /veh REEP3 (11722064_at) / RFU IGLL1 (11728026_x_at) / Fold change /veh IGLL1 (11728026_x_at): dose or concentration left out as unconfirmed
# Settings: MV-4-11 cells, 48 hours
compound,measurement,value
Nc1ncn([C@@H]2O[C@H](CO)[C@@H](O)[C@H]2O)c(=O)n1 [azacitidine],RFU MYO3A (11730013_a_at),81.22 RFU
